Experimental data as given in patent US20040023803A1, “Method for producing a solid herbicide formulation” (priority 2000, published 2004).

Test: Storage stability test of solid formulations (14 days at 54° C., CIPAC MT 46; active ingredient and AMTT content by quantitative HPLC)
Format: physicochemical
Details: for Storage 14 days, 54° C. active ingredient content (rel.): relative to zero value; for Preparation Concentration % by weight: zero value before storage
Description: The solid formulations prepared by the process according to the invention are storage-stable. In accordance with a storage test laid down by the authorization authorities, they are stored for 14 days at 54° C. […] The active ingredient content and the AMTT content of the formulations were each determined by means of quantitative HPLC. […] The samples were then analyzed and compared with the comparative value at the beginning of the storage (zero value). The active ingredient content is shown in each case as relative quantity based on the zero value (as a percentage). The storage experiments were carried out following the method CIPAC MT 46. The shelf life of a product is estimated by short-term storage at elevated temperature.

[1] = Table 2, Example 1 formulation, pH of the suspension 5.1
[2] = Table 2, Example 1 formulation, pH of the suspension 6
[3] = Table 2, Example 1 formulation, pH of the suspension 7
[4] = Table 2, Example 1 formulation, pH of the suspension 8
[5] = Table 2, Example 1 formulation, pH of the suspension 9
[6] = Table 3 (headed Example 3), tritosulfuron + flucarbazone-sodium formulation, pH of the suspension 6.5
[7] = Table 3 (headed Example 3), tritosulfuron + flucarbazone-sodium formulation, pH of the suspension 7.0
[8] = Table 4 (headed Example 4), tritosulfuron + dicamba formulation, pH of the suspension 6
[9] = Table 4 (headed Example 4), tritosulfuron + dicamba formulation, pH of the suspension 7
[10] = Table 4 (headed Example 4), tritosulfuron + dicamba formulation, pH of the suspension 8
[11] = Table 4 (headed Example 4), tritosulfuron + dicamba formulation, pH of the suspension 9

Row | Compound | Preparation Concentration % by weight [1] [% by weight] | Preparation Concentration % by weight [2] [% by weight] | Preparation Concentration % by weight [3] [% by weight] | Preparation Concentration % by weight [4] [% by weight] | Preparation Concentration % by weight [5] [% by weight] | Storage 14 days, 54° C. active ingredient content (rel.) [6] | Preparation Concentration % by weight [6] [% by weight] | Storage 14 days, 54° C. active ingredient content (rel.) [7] | Preparation Concentration % by weight [7] [% by weight] | Storage 14 days, 54° C. active ingredient content (rel.) [8] | Preparation Concentration % by weight [8] [% by weight] | Storage 14 days, 54° C. active ingredient content (rel.) [9] | Preparation Concentration % by weight [9] [% by weight] | Storage 14 days, 54° C. active ingredient content (rel.) [10] | Preparation Concentration % by weight [10] [% by weight] | Storage 14 days, 54° C. active ingredient content (rel.) [11] | Preparation Concentration % by weight [11] [% by weight] | further results
1 | COc1nc(NC(=O)NS(=O)(=O)c2ccccc2C(F)(F)F)nc(C(F)(F)F)n1 [tritosulfuron, N[[[4-methoxy-6-(trifluoromethyl)-1,3,5-triazin-2-yl]amino]carbonyl]-2-(trifluoromethyl)benzenesulfonamide] | 74.2 | 72.3 | 71.7 | 67.5 | 72.4 | 98.8 (rel.) % (rel.) | 40.5 | 100 (rel.) % (rel.) | 41.1 | 91.3 (rel.) % (rel.) | 11.9 | 99.7 (rel.) % (rel.) | 11.9 | 98.8 (rel.) % (rel.) | 11.3 | 102.6 (rel.) % (rel.) | 10.4 | Storage 14 days, 54° C. active ingredient content (rel.) [1]: 99.3 (rel.) % (rel.); Storage 14 days, 54° C. active ingredient content (rel.) [2]: 99.9 (rel.) % (rel.); Storage 14 days, 54° C. active ingredient content (rel.) [3]: 100.8 (rel.) % (rel.); Storage 14 days, 54° C. active ingredient content (rel.) [4]: 100.5 (rel.) % (rel.); Storage 14 days, 54° C. active ingredient content (rel.) [5]: 97.7 (rel.) % (rel.)
2 | COc1c(Cl)ccc(Cl)c1C(=O)O [dicamba] |  |  |  |  |  |  |  |  |  | 100 (rel.) % (rel.) | 60.4 | 100 (rel.) % (rel.) | 58.7 | 100 (rel.) % (rel.) | 58.5 | 101.9 (rel.) % (rel.) | 58.0 | 
3 | COc1nn(C(=O)[N-]S(=O)(=O)c2ccccc2OC(F)(F)F)c(=O)n1C.[Na+] [flucarbazone-sodium] |  |  |  |  |  | 98.8 (rel.) % (rel.) | 24.1 | 99.5 (rel.) % (rel.) | 24.3 |  |  |  |  |  |  |  |  | 
4 | COc1nc(N)nc(C(F)(F)F)n1 [AMTT, 2-amino-4-methoxy-6-trifluoromethyltriazine] | 0.03 | 0.03 | 0.033 | 0.026 | 0.035 |  | 0.025 |  | 0.019 |  | 0.009 |  | 0.007 |  | 0.007 |  | 0.006 | Storage 14 days, 54° C. % by weight (AMTT content) [1]: 0.249 % by weight; Storage 14 days, 54° C. % by weight (AMTT content) [2]: 0.250 % by weight; Storage 14 days, 54° C. % by weight (AMTT content) [3]: 0.178 % by weight; Storage 14 days, 54° C. % by weight (AMTT content) [4]: 0.056 % by weight; Storage 14 days, 54° C. % by weight (AMTT content) [5]: 0.234 % by weight; Storage 14 days, 54° C. % by weight (AMTT content) [6]: 0.164 % by weight; Storage 14 days, 54° C. % by weight (AMTT content) [7]: 0.065 % by weight; Storage 14 days, 54° C. % by weight (AMTT content) [8]: 0.470 % by weight; Storage 14 days, 54° C. % by weight (AMTT content) [9]: 0.011 % by weight; Storage 14 days, 54° C. % by weight (AMTT content) [10]: 0.007 % by weight; Storage 14 days, 54° C. % by weight (AMTT content) [11]: 0.007 % by weight
